Residues, ends and D or L forms follow the SMILES beside them. *: point of attachment. Cbz = O=C(OCc1ccccc1)*; CH2F = FC*
Legend:
podocytes = conditions: in vivo; cited from earlier work
[1] = system: rat glomerulonephritis model; conditions: cited from earlier work
cathepsin L [2] = test: Cathepsin L activity assay in glomerular extracts (fluorogenic substrate CV-(FR)2); format: biochemical, mouse; conditions: LPS treated mice, co-incubation
Protocol: Isolation and processing of glomeruli. Glomeruli were isolated from kidneys of 8-12 weeks old LPS- and PBS-treated (control) mice using a sequential sieve technique with mesh sizes of 180, 100, and 71 μm. The fraction collected from the 71-μm sieve was maintained for soup/pellet fractionation. Isolated glomeruli were homogenized in buffer containing 20 mM HEPES pH 7.5, 100 mM NaCl, 1 mM MgCl2, 1 mM PMSF, protease inhibitors (Roche), calpain inhibitor (Calbiochem), and E-64d (Calbiochem) using Dounce homogenizer. Subsequently, cytosol was centrifuged for 10 min at 4,600 g. Proteins were solubilized by 1% Triton X-100, 1 hour at 4° C., before it was spun at 70,000 g for 1 hour.
Cathepsin L activity assay. Subcellular sites of cathepsin L and cathepsin B activity in glomerular extracts were visualized by a fluorogenic substrate, CV—(FR)2, which emits light upon cleavage by cathepsin L or cathepsin B (Biomol).
To test the significance of this prediction, glomeruli were isolated from control mice and animals that were injected with low-dose lipopolysaccharide (LPS), a treatment causing high levels of cytosolic cathepsin L in podocytes. The tissue samples were further processed to obtain cytosolic and membrane-bound glomerular extracts (FIG. 1A). […]

cathepsin B = cathepsin B (Homo sapiens, UniProt P07858); conditions: cited from earlier work
cathepsin L [3] = test: Cellular CatL cleavage assay: CD2AP-FLAG HEK293 cells co-transfected with cathepsin L constructs; format: cell-based; conditions: for cleavage of CD2AP into p32 by WT cathepsin L: WT cathepsin L (pre-pro and short form), co-incubation with inhibitor; for cleavage of CD2AP into p32 by cytosolic (short, CatL M1) cathepsin L: cytosolic cathepsin L alone, inhibitor added
Text: FIG. 2A is a scan of a photograph showing a silver stained gel of FLAG-CD2AP after cleavage with CatL at various pH. FIG. 2B is a scan of a photograph showing an immunoblot of cleaved CD2AP fragments that are tagged with a N-terminal GFP. GFP-CD2AP is stable in the absence of CatL enzyme. Cleavage of CD2AP at pH 4.5 and 5.5 leads to complete digestion of the protein. At pH 7.0, CD2AP is cleaved into a stable 55 kD fragment (▪) as detected with an anti-GFP antibody. The same fragment is detected with the CD2AP antiserum which is raised against the SH3 domains of CD2AP (anti-N-CD2AP). The CD2AP antiserum also detects a weak band corresponding to a 44 kD fragment (▴, detected by the affinity of the antibody to the C-terminal SH3, anti-C-CD2AP). FIG. 2C is a schematic representation showing the match of cleavage fragments with predicted CatL cleavage site QPLGS. FIG. 2D is a blot showing that CatL cleaves CD2AP-FLAG yielding a 44 kD (▴) and a 32 kD ([…]) fragment. FIG. 2E is a schematic representation showing that both fragments have corresponding predictions in the amino acid sequence of CD2AP (QPLGS and LSAAE). FIG. 2F is a blot showing results from a cellular CatL cleavage assay: Wild type (WT) CatL (pre-pro CatL and short form) cleaves CD2AP in HEK293 cells. […] Short CatL (CatL M1) is sufficient to cleave CD2AP yielding a 32 kD fragment ([…]). This cleavage is abrogated by a specific CatL inhibitor. FIG. 2G is a blot showing that deletion of the CatL cleavage site LSAAE protects CD2AP from limited proteolysis into the 32 kD fragment ([…]).
Cell culture and transient transfection. Mouse podocytes were cultured as described previously (Mundel, P. et al. Exp. Cell Res. 236, 248-258 (1997)). HEK293 cells were maintained and transfected as previously reported (Reiser, J. et al. Nat. Genet. 37, 739-744 (2005)).
Next, it was investigated whether cytosolic cathepsin L in cells is sufficient to process CD2AP. CD2AP-FLAG expressing HEK293 cells were co-transfected with WT cathepsin L […] which generates cytosolic and lysosomal cathepsin L protein and a cathepsin L construct that contains a deletion of the first AUG site and thus encodes selectively for the cytosolic form of cathepsin L. The experiments were performed in the presence or absence of a specific cathepsin L inhibitor (FIG. 2F). WT cathepsin L led to cleavage of CD2AP yielding p32. […] More importantly, transfection of cytosolic cathepsin L alone was sufficient to cleave CD2AP resulting in the production of p32 (FIG. 2F). […] The stable p32 fragment was identified in the cleavage assays at neutral pH (FIG. 2A). In addition, this fragment was generated in HEK 293 cells using cytosolic cathepsin L. Therefore, this fragment was regarded as an end-product generated through cytosolic cathepsin L cleavage. […]

[4] = listed as specific CatL inhibitor

CCN(CC)CCCC(C)Nc1nc(C)cc(Nc2ccc3nc(C)cc(N)c3c2)n1 (centres unmarked) [NSC23766]
protection against proteinuria (podocytes): safeguard against proteinuria

COC(=O)[C@@H]1CC2=CC(=O)CC[C@]2(C)[C@@]23O[C@@H]2C[C@@]2(C)[C@@H](CC[C@@]24CCC(=O)O4)[C@H]13 [Epleronone]
protection against proteinuria (podocytes): safeguard against proteinuria

CC(C)C[C@H](NC(=O)[C@H]1O[C@@H]1C(=O)O)C(=O)NCCCCN=C(N)N [E64]
protection against proteinuria (podocytes): safeguard against proteinuria
experimental proteinuria [1]: can reduce experimental proteinuria

CC(C)[C@@H]1NC(=O)[C@@H](Cc2ccccc2)NC(=O)[C@H](CC(=O)O)NC(=O)CNC(=O)[C@H](CCCN=C(N)N)NC1=O [cycloRGDfV]
protection against proteinuria (podocytes): safeguard against proteinuria

O=C(NC(Cc1ccccc1)C(=O)NC(Cc1ccccc1)C(=O)CF)OCc1ccccc1 (stereo not drawn) [Z-FF-FMK] (Cbz-Phe-Phe-CH2F; configuration not given here)
inhibition of cathepsin L activity in cytosolic extract of glomeruli (cathepsin L [2]): could be inhibited
inhibition of cathepsin B (cathepsin B): does not inhibit cathepsin B
cleavage of CD2AP into p32 by WT cathepsin L (cathepsin L [3]; [4]): can be prevented
cleavage of CD2AP into p32 by WT cathepsin L (cathepsin L [3]; listed as specific cathepsin L inhibitor): could be prevented
cleavage of CD2AP into p32 by cytosolic (short, CatL M1) cathepsin L (cathepsin L [3]; listed as cathepsin L inhibitor): could be blocked
cleavage of CD2AP into p32 by cytosolic (short, CatL M1) cathepsin L (cathepsin L [3]; [4]): abrogated

Reference: patent US20110236397A1, “LIMITED PROTEOLYSIS OF CD2AP AND PROGRESSION OF RENAL DISEASE” (University of Miami, priority 2008, published 2011)
